Reference: ChEMBL document CHEMBL1141295, “Constituents of Ocimum sanctum with antistress activity” (J Nat Prod, 2007)
The source made the active and inactive calls.

What was measured:
Type in all cases: functional, organism-based
Set-up in all cases: dose 40 mg/kg
Rattus norvegicus [1] = assay: Decrease in acute stress induced adrenal hypertrophy in Sprague-Dawley rat at 40 mg/kg, po
Rattus norvegicus [2] = assay: Increase in acute stress induced glucose levels in Sprague-Dawley rat at 40 mg/kg, po
Rattus norvegicus [3] = assay: Increase in acute stress induced adrenal gland weight in Sprague-Dawley rat at 40 mg/kg, po
Rattus norvegicus [4] = assay: Increase in acute stress induced plasma corticosterone levels in Sprague-Dawley rat at 40 mg/kg, po
Rattus norvegicus [5] = assay: Increase in acute stress induced plasma creatine levels in Sprague-Dawley rat at 40 mg/kg, po

Measured: Activity

CCCCCCCCCCCCCCCCCCCCCC(=O)O[C@H](COC(=O)CCCCCCCCCCCCCCC)CO[C@H]1O[C@H](CN)[C@@H](O)[C@H](O)[C@H]1O
active: all assays above

CCCCCCCCCCCCCCCCCC(=O)OC[C@H](CO[C@@H]1O[C@H](CO[C@H]2O[C@H](CO)[C@H](O)[C@H](O)[C@H]2O)[C@H](O)[C@H](O)[C@H]1O)OC(=O)CCCCCCCCCCCCC
active: Rattus norvegicus [3] | Rattus norvegicus [4] | Rattus norvegicus [5]

C=CCc1ccc(O[C@@H]2O[C@H](CO)[C@@H](O)[C@H](O)[C@H]2O)c(O)c1
active: all assays above
